Source: PMC3663898 (Antiviral research, 2013)
≈ marks a conversion by molar mass, not a printed value. Like-named read-outs stand apart in the source and are kept apart here.

Tests used:
[1] = rat, in vivo; for rats with diarrhea: Sprague-Dawley, po, 200 mg/kg
[2] = in vivo; conditions: male, Sprague-Dawley, rat; for C0 / Vd / clearance / half-life: iv
[3] = system: TCRV; assay: microbe, parasite or virus in culture; format: cell-based, Tacaribe virus (11573 strain); conditions: Mammarenavirus tacaribeense, Huh7.5, 48 h; for EC50: read-out: TARV EC50; for EC90: read-out: TARV EC90
[4] = male, Sprague-Dawley, rat, in vivo
[5] = in vitro; conditions: bovine
[6] = in vitro; conditions: hamster
[7] = in vitro; conditions: human
[8] = in vitro; conditions: human, Caco-2
[9] = system: CYP1A2, CYP2C9, CYP2C19, CYP2D6 and CYP3A4; assay: in vitro; conditions: human
[10] = physchem
[11] = system: DENV; assay: microbe, parasite or virus in culture; format: cell-based, DENV (serotype 2, New Guinea C); conditions: Dengue virus, BHK, 48 h; for EC50: read-out: DENV EC50; for EC90: read-out: DENV EC90

## CC(C)(C)C(=O)N(CCCCCCN1C[C@H](O)[C@@H](O)[C@H](O)[C@H]1CO)C1CCCCC1 [IHVR17028, N-cyclohexyl-N-(6-((2R,3R,4R,5S)-3,4,5-trihydroxy-2-(hydroxymethyl)piperidin-1-yl)hexyl)pivalamide]
[1]
  rats with diarrhea: 100%
  adverse event at lower doses: sign of GI stress, such as anogenital staining or soft stool
[2]; 5 mg/kg
  C0: 1660 ng/mL
  Vd: 3 L/kg
  clearance: 55.7 mL/min/kg
  half-life: 0.88 h
[2]; po, 25 mg/kg
  Cmax: 180 ng/mL
  Tmax: 1.56 h
[3]
  EC50: 0.26 ± 0.08 µM
  EC90: 26.7 ± 20.9 µM
[4]; 5 mg/kg
  AUC IV: 1540/903/ND/ND μg*h/mL
[4]; 25 mg/kg
  AUC PO: 1540/903/ND/ND μg*h/mL
[5]
  CC50: > 500 µM
[6]
  CC50: > 500 µM
[7]
  CC50: > 500 µM
[8]
  efflux ratio: 31.7
[9]
  IC50: > 10 µM
[10]; pH 4, aqueous buffer
  solubility: 299 µM (≈ 128 µg/mL)
[10]; pH 7.4, aqueous buffer
  solubility: 311 µM (≈ 133 µg/mL)
[11]
  EC50: 0.3 ± 0.03 µM
  EC90: 1.7 ± 0.8 µM

## CC(C)(C)NC(=O)N(CCCCCCN1C[C@H](O)[C@@H](O)[C@H](O)[C@H]1CO)C1CCCCC1 [IHVR19029, 3-(tert-butyl)-1-cyclohexyl-1-(6-((2R,3R,4R,5S)-3,4,5-trihydroxy-2-(hydroxymethyl)piperidin-1-yl)hexyl)urea]
[2]
  Tmax: 0.167 h
[2]; im, 5 mg/kg
  Cmax: 1230 ng/mL
  Tmax: 0.1 h
[2]; ip, 5 mg/kg
  Cmax: 1330 ng/mL
  Tmax: 0.17 h
[2]; 5 mg/kg
  C0: 1790 ng/mL
  Vd: 3 L/kg
  clearance: 58.2 mL/min/kg
  half-life: 1.2 h
[2]; po, 75 mg/kg
  Cmax: 260 ng/mL
  Tmax: 2.1 h
[3]
  EC50: 0.74 ± 0.3 µM
  EC90: 52.5 ± 38.9 µM
[4]
  AUC IM: 1383/945/1839/983 μg*h/mL
  F PO: 4.6/71/133%
[4]; ip, 5 mg/kg
  AUC IP: 1383/945/1839/983 μg*h/mL
[4]; 5 mg/kg
  AUC IV: 1383/945/1839/983 μg*h/mL
[4]; 75 mg/kg
  AUC PO: 1383/945/1839/983 μg*h/mL
[5]
  CC50: > 500 µM
Balb/c mice, single dose IP or IM up to 200mg/kg, 9-day observation
  mortality or clinical signs: No mortality or clinical signs were observed
mouse, in vivo
  weight loss and GI alterations: No significant weight loss and GI alterations
[6]
  CC50: > 500 µM
[7]
  CC50: > 500 µM
[8]
  efflux ratio: 34.2
[9]
  IC50: > 10 µM
[10]; pH 4, aqueous buffer
  solubility: 309 µM (≈ 137 µg/mL)
[10]; pH 7.4, aqueous buffer
  solubility: 303 µM (≈ 134 µg/mL)
[11]
  EC50: 1.25 ± 1.1 µM
  EC90: 22.5 ± 10.6 µM

## OC[C@@H]1[C@@H](O)[C@H](O)[C@@H](O)CN1CCCCCCOc1cc(F)ccc1F [IHVR11029, (2R,3R,4R,5S)-1-(6-(2,5-difluorophenoxy)hexyl)-2-(hydroxymethyl)piperidine-3,4,5-triol]
[1]
  rats with diarrhea: 50%
  adverse event at lower doses: sign of GI stress, such as anogenital staining or soft stool
[2]; 5 mg/kg
  C0: 1620 ng/mL
  clearance: 42.3 mL/min/kg
[2]; po, 25 mg/kg
  Tmax: 4.17 h
[3]
  EC50: 3.3 ± 2.7 µM
  EC90: 69 ± 37.7 µM
[4]
  F PO: 92/ND/ND %
[4]; 5 mg/kg
  AUC IV: 1990/9180/ND/ND μg*h/mL
[4]; 25 mg/kg
  AUC PO: 1990/9180/ND/ND μg*h/mL
[5]
  CC50: > 500 µM
[6]
  CC50: > 500 µM
[7]
  CC50: > 500 µM
[9]
  IC50: > 10 µM
[11]
  EC50: 0.75 ± 0.06 µM
  EC90: 6.3 ± 3.5 µM
